Experiments:
[1] = Evaluation of pharmacokinetics in vivo (rat); conditions: concentration of Parent Drug A after admin. of the named substance
Experimental: (§1) Evaluation of Pharmacokinetics (In Vivo) To evaluate the pharmacokinetics of test substances in vivo, these test substances are dissolved in appropriate formulation vehicles (ethanol, dimethyl sulfoxide, PEG400, glycerol formal etc.), or mixtures thereof. The test substances are then administered to rats or dogs intravenously, orally or subcutaneously. The intravenous application is performed as bolus. Administered doses range usually between 0.1 to 5 mg/kg, however, doses for subcutaneous and oral administration can exceed this range up to doses of 30 mg/kg. Blood samples are retrieved via a catheter, exsanguination or venous puncture in vials containing appropriate anticoagulants, such as lithium heparinate or potassium EDTA. Plasma is generated from the blood via centrifugation. Blood samples are taken over an appropriate time interval, usually lasting up to 144 h after administration. If necessary, samples from later time points can also be taken. If possible, time points are chosen so that the initial absorption phase, the maximum plasma concentration (Cmax), and exposure within a certain time interval (AUC(0-t))aer described. Furthermore, it is possible to also retrieve organ-, tissue- and urine samples. The quantitative measurement of the test substances in the samples is performed using calibration curves in the respective matrices. The protein content of the samples is precipitated using acetonitrile or methanol. Thereafter, the samples are separated using HPLC in combination with reversed phase chromatography columns. The HPLC system is coupled to a triple quadrupole mass spectrometer via an electrospray interface. The evaluation of the plasma concentration/time profiles are afterwards evaluated using a validated pharmacokinetics evaluation program. […] Relative bioavailability (Frel) was used to describe the exposure of parent drug after prodrug administration compared to the exposure of parent drug after direct administration of compound A which was normalised to 100%.

[2] = Evaluation of pharmacokinetics in vivo (dog)
Experimental: as §1

[3] = test system: Ctenocephalides felis adult; assay: Antiparasitic activity after administration to rats: fleas; assay type: in vivo; conditions: Ctenocephalides felis adult; for In-vivo Efficacy SD2: study day 2; for In-vivo Efficacy SD9: study day 9
Experimental: (§2) Measurement of the Antiparasitic Activity after Administration of a Prodrug to Rats Compounds were dissolved in the appropriate volume of glycerol formal (p.a.) just before application to the animals (dose volume was adjusted to 0.03 mL/kg bodyweight). 5 rats per group were either injected intraperitoneally or subcutaneously. Rats were infested with 30 Dermacentor variabilis nymphs on study days −2, 7, 14, 21, 28, 35 and 30 adult Ctenocephalides fleas on study days −1, 8, 15, 22, 29, 36. Parasite counts were performed on study days 2, 9, 16, 23, 30, 37. Percent efficacy was calculated as arithmetic mean parasite numbers as life attached tick numbers and live flea numbers of the respective study group in comparison to parasite counts on a placebo-treated control group. Infestation of groups with less than 75% efficacy on two consecutive counting occasions will terminated for the respective parasite.

[4] = test system: Dermacentor variabilis nymph; assay: Antiparasitic activity after administration to rats: ticks; assay type: in vivo; conditions: Dermacentor variabilis nymph; for In-vivo Efficacy SD2: study day 2; for In-vivo Efficacy SD9: study day 9
Experimental: as §2

N#CC1(NC(=O)c2cc(-c3cnn(-c4c(Cl)cc(C(F)(C(F)(F)F)C(F)(F)F)cc4OC(F)(F)F)c3)ccc2Cl)CC1 [Parent Drug A, 2-Chlor-5-{1-[2-chlor-4-(1,1,1,2,3,3,3-heptafluorpropan-2-yl)-6-(trifluormethoxy)phenyl]-1H-pyrazol-4-yl}-N-(1-cyanocyclopropyl)benzamide, reference compound]
AUC(0-144 h)norm of parent drug A ([1]; iv bolus): 11 kg·h/L | AUC(0-144 h)norm of parent drug A ([1]; sc): 1.7 kg·h/L | AUC(0-72 h)norm of parent drug A ([2]; iv bolus, concentration of Parent Drug A after admin. of the named substance): 6.0 kg·h/L | bioavailability ([2]; plasma, sc, calculated based on AUC(0-t)norm, parent drug A normalised to 100%, read-out: Frel (relative bioavailability)): 100% | AUC(0-384 h)norm of parent drug A ([2]; sc, concentration of Parent Drug A after admin. of the named substance): 1.0 kg·h/L | In-vivo Efficacy SD2 ([3]; 10 mg/kg ip): 84% | In-vivo Efficacy SD9 ([3]; 10 mg/kg ip): 68% | In-vivo Efficacy SD16 ([3]; 10 mg/kg ip, study day 16): 71% | In-vivo Efficacy SD2 ([3]; 10 mg/kg sc): 53% | In-vivo Efficacy SD9 ([3]; 10 mg/kg sc): 44% | In-vivo Efficacy SD2 ([4]; 10 mg/kg ip): 96% | In-vivo Efficacy SD9 ([4]; 10 mg/kg ip): 87% | In-vivo Efficacy SD16 ([4]; 10 mg/kg ip, study day 16): 83% | In-vivo Efficacy SD23 ([4]; 10 mg/kg ip, study day 23): 93% | In-vivo Efficacy SD30 ([4]; 10 mg/kg ip, study day 30): 53% | In-vivo Efficacy SD37 ([4]; 10 mg/kg ip, study day 37): 32% | In-vivo Efficacy SD2 ([4]; 10 mg/kg sc): 72% | In-vivo Efficacy SD9 ([4]; 10 mg/kg sc): 61%
